{"source": "patent US20150143553A1", "about": "“Methods And Compositions Comprising A Drosophila Model Of Amyotrophic Lateral Sclerosis” (priority 2013, published 2015)", "key": {"[1]": {"system": "Larvae expressing TDPG298S in motor neurons", "experiment": "Larval turning assay, D42>TDPG298S", "format": "in vivo, Drosophila", "settings": "1 μM pioglitazone in food; DMSO 25.8+/−1.8 sec", "procedure": "(§1) Assays were performed as disclosed herein. Briefly, wandering third instar larvae were placed on a grape juice plate at room temperature. After becoming acclimated, crawling larvae were gently turned onto their backs (ventral side up) and monitored until they were able to turn back (dorsal side up) and continue their forward movement. The amount of time that it took each larva to complete this task was recorded. Twenty to thirty larvae were used per genotype. Student's t-test was performed to assess statistical significance.\n(§2) Next an ideal drug concentration was determined using a more sensitive and disease relevant assay that measures neuromuscular coordination, namely larval turning (see Materials and Methods for details). Larvae expressing TDPWT or TDPG298S in motor neurons (D42>TDP-43) were raised on food containing either 1, 5, 10, 25 μM pioglitazone or DMSO and assayed for their locomotor ability using larval turning assays.\n(§3) Assays were performed as described herein (33, 35). Briefly, wandering third instar larvae were placed on room temperature grape juice plates, allowed to acclimate then gently turned ventral side up. The time required for larvae to flip back to dorsal side up and start moving forward was noted as the larval turning time. At least 30 larvae per genotype and condition were tested."}, "[2]": {"system": "Drosophila larvae expressing wild-type TDP-43 in motor neurons", "experiment": "Drug screen: rescue of lethality caused by wild-type TDP-43 expression in motor neurons (D42 Gal4)", "format": "in vivo", "settings": "for Av. % rescue (number of rescued adults/total number of pupae × 100%): TDP^WT"}, "[3]": {"system": "ALS patients", "settings": "ALS patients administered pioglitazone; cited from earlier work"}, "[4]": {"system": "Larvae expressing TDPWT in motor neurons", "experiment": "Larval turning assay, D42>TDPWT", "format": "in vivo, Drosophila", "settings": "1 μM pioglitazone in food; DMSO 14.5+/−1 sec", "procedure": "as §1, §2, §3"}, "[5]": {"system": "wild-type control larvae (D42>w1118)", "experiment": "Larval turning assay, wild-type control larvae", "format": "in vivo, Drosophila", "settings": "1 μM pioglitazone", "procedure": "as §2, §3"}, "[6]": {"system": "D42>TDPWT larvae", "experiment": "Global metabolomic profiling, D42>TDPWT larvae", "format": "in vivo, Drosophila", "settings": "1 μM pioglitazone", "procedure": "To gain insight into the mechanism by which pioglitazone is neuroprotective, a global metabolomic approach was taken using larvae expressing TDP-43 in motor neurons (D42>TDP-43) and D42>w1118 controls raised on either 1 μM pioglitazone, DMSO or regular food. To determine specific metabolites that were restored by pioglitazone in the context of TDPWT, the metabolic profiles of D42>TDPWT larvae raised on drug food versus DMSO were compared and 111 alterations were found among a total of 572 metabolites detected in the samples. […] This led to the identification of 28 metabolites altered by both pioglitazone and TDPWT (Table 2). […] In addition, 6 metabolites further altered by pioglitazone in the same direction as that of TDP-43 were found, consistent with a potential worsening effect. Among the 28 metabolites some were also affected by DMSO alone as determined by comparing the metabolic profiles of D42>TDPWT larvae raised on DMSO and D42>TDPWT larvae raised on regular food.\nD42 Gal4 virgin females were crossed with UAS TDP-43 YFP or w1118 males and raised on regular food (RF), DMSO or 1 μM Pioglitazone (PGZ) containing food. 50-60 third instar larvae (approximately 50-60 mg) were collected and flash frozen in liquid nitrogen. Samples were made in 5 replicates. Global metabolomic study was performed following standard protocols by Metabolon, INC (Durham, N.C.). Briefly, protein samples were divided into four fractions: one for analysis by UPLC-MS/MS with positive ion mode electrospray ionization, one for analysis by UPLC-MS/MS with negative ion mode electrospray ionization, one for analysis by GC-MS, and one sample was reserved for backup. Raw data was extracted, peak-identified and QC processed using Metabolon's hardware and software. Compounds were identified by comparison to library entries of purified standards or recurrent unknown entities. Peaks were quantified using area-under-the-curve. Following normalization to Bradford protein concentration data were log transformed. Missing values for a given metabolite were imputed with the minimum observed value for each compound based on the assumption that they were below the limit of instrument detection sensitivity. For studies spanning multiple days, a data normalization step was performed to correct variation resulting from instrument inter-day tuning differences.\nStudent's T test was used for statistical analysis of larval turning experiments and Log-rank test was used for survival analyses. For metabolomics standard statistical analyses were performed in ArrayStudio on log transformed data. For those analyses not standard in ArrayStudio, the programs R (cran.r-project.org/) or JMP (jmp.com) were used. Welch's two-sample t-test and matched pairs t-test were used to compute p-values. False discovery rates were calculated as described (69)."}, "[7]": {"system": "Drosophila larvae expressing G298S TDP-43 in motor neurons", "experiment": "Drug screen: rescue of lethality caused by G298S TDP-43 expression in motor neurons (D42 Gal4)", "format": "in vivo", "settings": "TDP^G298S", "text": "[…] Larvae expressing TDP-43 (wild type or mutant, as shown) are raised on drug containing food.\n[…] Larvae expressing TDP-43 (wt or mutant) were raised on drug containing food.\nUsing a Drosophila model of ALS based on TDP-43 that recapitulates several aspects of the disease pathophysiology (33, 35), a drug screen aimed at identifying FDA approved compounds with neuroprotective potential in vivo were designed (FIG. 37A). […] This phenotype was used to screen for drug candidates with therapeutic potential as determined by their ability to rescue pupal lethality and produce viable adults with extended wings (FIG. 37A).\nLarvae expressing TDP-43 in motor neurons (D42>TDP-43) were raised on fly food containing different amounts of drug (1, 10 and 25 μM, see Materials and Methods for details) or Dimethyl Sulfoxide (DMSO) as vehicle control (FIG. 37B, C).\nUAS TDP-43 males were crossed with D42-Gal4 female virgins on fly food containing either DMSO or pioglitazone. For DMSO controls, the same volume of DMSO as the corresponding drug concentration was added. Bromophenol blue was added to a final concentration of approximately 0.02% to ensure homogeneity. Crosses were made on drug food with 3 female virgins and 2 males in each vial, and were maintained at 25° C. unless noted. The parents were discarded after 5-7 days then the vials were screened for adult progeny with straight wings from day 14 to day 25. All adults were screened for TDP-43 expression by visualizing the YFP tag. Total number of pupae was counted on day 25. Percent survival was calculated using the formula (total number of straight-winged adults/total number of pupae)×100. All experiments were performed in triplicate."}}, "data": [{"smiles": "CCc1ccc(CCOc2ccc(CC3SC(=O)NC3=O)cc2)nc1", "note": "(stereo not drawn) [Pioglitazone]", "values": [{"measurement": "larval turning time", "setting": "[1]", "value": "17.3 ± 1.1", "unit": "s"}, {"measurement": "Av. % rescue (number of rescued adults/total number of pupae × 100%)", "setting": "[2]; PGZ 1 μM", "value": 15.2, "unit": "%"}, {"measurement": "Av. % rescue (number of rescued adults/total number of pupae × 100%)", "setting": "[2]; PGZ 10 μM", "value": 1.7, "unit": "%"}, {"measurement": "Av. % rescue (number of rescued adults/total number of pupae × 100%)", "setting": "[2]; PGZ 25 μM", "value": 0.8, "unit": "%"}, {"measurement": "Preliminary rescue result: adults with normal wings", "setting": "[2]; transgene WT2, 50 μM in fly food", "value": 1, "unit": "Adult Normal Wings Adults"}, {"measurement": "Rescue Effect", "setting": "[2]; transgene wt, primary screening (50 μM), out of 15-20 pupae", "value": 1, "unit": "adults"}, {"measurement": "hazard ratio for mortality", "setting": "[3]", "value": "increase in hazard ratio for mortality"}, {"measurement": "larval turning time", "setting": "[4]", "value": "9.2 ± 0.7", "unit": "s"}, {"measurement": "effect on larval turning time in control larvae", "setting": "[5]", "value": "no effect"}, {"measurement": "metabolites altered by both pioglitazone and TDPWT", "setting": "[6]", "value": 28}, {"measurement": "metabolites altered in opposite direction compared to TDPWT (restoration)", "setting": "[6]", "value": 14}, {"measurement": "metabolites further altered in the same direction as TDP-43 (worsening)", "setting": "[6]", "value": 6}, {"measurement": "metabolites similarly affected by pioglitazone and TDPWT (no further change)", "setting": "[6]", "value": 8}, {"measurement": "saccharopine level, pioglitazone compared to DMSO", "setting": "[6]", "value": 0.67}, {"measurement": "N-acetylglutamine level, pioglitazone versus DMSO", "setting": "[6]; Pvalue<0.05", "value": 0.74}, {"measurement": "4-hydroxybutyrate (GHB) level, pioglitazone compared to DMSO", "setting": "[6]; Pvalue=0.04", "value": 0.41}, {"measurement": "metabolite alterations, drug food versus DMSO", "setting": "[6]; among a total of 572 metabolites", "value": 111}, {"measurement": "pyruvate level, pioglitazone compared to DMSO", "setting": "[6]; not significant", "value": 0.68}, {"measurement": "Av. % rescue (number of rescued adults/total number of pupae × 100%)", "setting": "[7]; PGZ 1 μM", "value": 19.4, "unit": "%"}, {"measurement": "Av. % rescue (number of rescued adults/total number of pupae × 100%)", "setting": "[7]; PGZ 10 μM", "value": 15.0, "unit": "%"}, {"measurement": "Av. % rescue (number of rescued adults/total number of pupae × 100%)", "setting": "[7]; PGZ 25 μM", "value": 9.7, "unit": "%"}]}]}
